From patent US20250179061A1 (SIRONAX LTD., priority 2022, published 2025)

System: HT-29 cells
Assay: HT-29 necroptosis cell viability assay (TNF-α/SMAC mimetic/zVAD-FMK, CellTiter-Glo)
Type: cell-based
Details: Homo sapiens, HT-29, HT-29 cells, necroptosis induced by TNF-α/SMAC mimetic/zVAD-FMK, CellTiter-Glo; read-out: Activity (IC50 class)
Protocol: Compounds 1-702 of the disclosure were tested for biological activity, following the experimental procedures described below.
• Cell line: HT-29 (ATCC® HTB-38™) • Culture medium: McCOY's 5A, Gibco, Cat No. 16600-082 • FBS, Gibco, Cat No. 10099-141 C • Trypsin: Gibco, Cat No. 25200-056 • DMSO: Sigma, Cat No. 67-68-5, 1L • Assay plate: Corning #3903 • Compound dilution plate: Corning #3357 • Inducers: TNFα, GenScript, Cat No. Z01001-50, • SmacM, Cat. No., HY-15989, MedChemExpress (MCE) • Z_VAD FMK, TargetMol, T6013 • Cell Titer-Glo® Luminescent Cell Viability Assay Kit: Promega, Cat No. G7573 • EnVision: PerkinElmer, 2105-0010
• 1. HT-29 cells were checked every day to make sure that they were healthy and growing as expected. They were subjected to sub-culturing when they were approximately 80% confluent. • 2. The culture medium, McCOY's 5A medium (Gibco, Cat No. 16600-082) with 10% fetal bovine serum or FBS (Gibco, Cat No. 10099-141C), was pre-warmed in a 37° C. water bath for at least 30 min. • 3. When the cells had reached a desired level of confluency of 80% in a T75 flask, the medium was aspirated, and the cells were washed with warm phosphate buffered saline or PBS two times. • 4. 2-3 ml fresh warm trypsin (Gibco, Cat No. 25200-056) solution was added to the washed cells. The flask with the cells was transferred to a 37° C. incubator. • 5. After 5 minutes, the side of the flask was tapped, and the flask was examined under a microscope for detachment of the cells to the flask. If necessary, the cells were kept in the incubator for an additional 5-10 minutes, with occasional tapping, until lifting was complete. • 6. The trypsin reaction was neutralized by transferring 6-9 ml cell culture medium to sterile 15 ml conical tubes, and by centrifuging the cell culture at 300×g for 7 minutes to pellet the cells (supernatant decanted). • 7. The cells were resuspended in fresh cell culture medium and the cell counting was performed using a hemocytometer. • 8. 100 μl of the resuspended cell culture medium containing ˜5,000 cells were transferred into each well of the sterile 96-well cell culture plate (Corning 3903) and cultured overnight at 37° C. with 5% CO2.
• 1. All test compounds were dissolved in DMSO (Dimethyl sulfoxide) to create a 20 mM stock. • 2. 3 μl of 20 mM stock of each compound was mixed with 27 μl DMSO, and the compound solution was further diluted at a titration ratio of 1:3 (20 μl compound solution+40 μl DMSO) till the 10 points end. • 3. All culture medium was removed from assay plates filled with HT-29 cell cultures. The cells were then washed with 1 PBS, and resuspsended in fresh, FBS-free McCOY's 5A medium containing a cocktail of TNF-α (10 ng/ml), a SMAC mimetic compound (6 μM) and Z-VAD-fluoromethylketone or zVAD-FMK (10 μM) to stimulate the HT-29 cells to increase RIP1 kinase levels and necroptosis. • 4. 0.5 μL of the diluted compound solution was added to the corresponding 96-well assay plates. • 5. The assay plates were incubated for 20 hours at 37° C. with 5% CO2.
• 1. The CellTiter-Glo® Luminescent Cell Viability Assay was employed to detect the ATP levels of viable HT-29 cells. • 2. The CellTiter-Glo® buffer and the lyophilized substrate were equilibrated to room temperature prior to use. • 3. The CellTiter-Glo® substrate was resuspended with CellTiter-Glo® buffer, then mixed by gently vortexing to obtain a homogeneous solution. • 4. 20 μl of the enzyme/substrate mixture was transferred by multi-channel pipetting into 96-well assay plates. • 5. The assay plates were placed on an orbital shaker and the contents were shaken for 3 minutes to induce cell lysis. • 6. The assay plates were incubated at room temperature for 10 minutes to stabilize the luminescent signal. • 7. The luminescence signals were read and recorded with EnVision. • 8. The geometric mean IC50 values were calculated from 10 points response dose with duplicates. […]

How did the IC50 turn out when `CN(C)c1cc(C#N)ccc1Oc1ccc(-n2ncn(Cc3c(F)cccc3F)c2=O)cc1F` [Example 676, 4-(4-(4-(2,6-difluorobenzyl)-5-oxo-4,5-dihydro-1H-1,2,4-triazol-1-yl)-2-fluorophenoxy)-3-(dimethylamino)benzonitrile] was run?
The IC50 was < 100 nM.

With `Cc1nc(C(N)=O)sc1Oc1ncc(-n2ncn(Cc3c(F)cccc3F)c2=O)cc1Cl` [Example 647, 5-((3-chloro-5-(4-(2,6-difluorobenzy1)-5-oxo-4,5-dihydro-1H-1,2,4-triazol-1-yl)pyridin-2-yl)oxy)-4-methylthiazole-2-carboxamide] as the molecule, how does the IC50 read?
Its IC50 is < 100 nM.

Same assay, conditions: Homo sapiens, HT-29, HT-29 necroptosis cell viability assay; class symbols for IC50; read-out: Activity

With `CCOC1CN(c2cc(Oc3ccc(-n4ncn(Cc5c(F)cccc5F)c4=O)cc3Cl)c(F)cn2)C1` [Example 495, 2-(3-chloro-4-((2-(3-ethoxyazetidin-1-yl)-5-fluoropyridin-4-yl)oxy)phenyl)-4-(2,6-difluorobenzyl)-2,4-dihydro-3H-1,2,4-triazol-3-one] as the molecule, how does the IC50 read?
Its IC50 is < 100 nM.

`CC1(CNC(=O)OC(C)(C)C)CN(c2cc(Oc3ccc(-n4ncn(Cc5c(F)cccc5F)c4=O)cc3F)c(F)cn2)C1` [Example 557, tert-butyl ((1-(4-(4-(4-(2,6-difluorobenzyl)-5-oxo-4,5-dihydro-1H-1,2,4-triazol-1-yl)-2-fluorophenoxy)-5-fluoropyridin-2-yl)-3-methylazetidin-3-yl)methyl)carbamate] was tested. Which IC50 did it give?
Its IC50 is < 100 nM.

How did the IC50 turn out when `Cc1nc(C#N)cn1Cc1ccc(-n2ncn(Cc3c(F)cccc3F)c2=O)cc1F` [Example 125, 1-(4-(4-(2,6-difluorobenzyl)-5-oxo-4,5-dihydro-1H-1,2,4-triazol-1-yl)-2-fluorobenzyl)-2-methyl-1H-imidazole-4-carbonitrile] was run?
The IC50 was < 100 nM.

Which IC50 does the source give for `Cc1nc(C2(N)CC2)sc1Oc1ccc(-n2ncn(Cc3c(F)cccc3F)c2=O)cc1F` [Example 613, 2-(4-((2-(1-aminocyclopropyl)-4-methylthiazol-5-yl)oxy)-3-fluorophenyl)-4-(2,6-difluorobenzyl)-2,4-dihydro-3H-1,2,4-triazol-3-one] here?
The IC50 was < 100 nM.

How did the IC50 turn out when `Cc1c(CO)nn(C)c1Oc1ccc(-n2nc3n(c2=O)C(c2ccccc2)CC3)cc1F` (stereo not shown) [Example 158, 2-(3-fluoro-4-((3-(hydroxymethyl)-1,4-dimethyl-1H-pyrazol-5-yl)oxy)phenyl)-5-phenyl-2,5,6,7-tetrahydro-3H-pyrrolo[2,1-c][1,2,4]triazol-3-one] was run?
Its IC50 is < 100 nM.

For `O=c1n(Cc2c(F)cccc2F)cnn1-c1ccc(Oc2scnc2C(F)F)c(F)c1` [Example 147, 4-(2,6-difluorobenzyl)-2-(4-((4-(difluoromethyl)thiazol-5-yl)oxy)-3-fluorophenyl)-2,4-dihydro-3H-1,2,4-triazol-3-one], which IC50 is on record?
The IC50 was < 100 nM.

How did the IC50 turn out when `Cc1nc(C(N)=O)sc1Oc1ccc(-n2ncn(Cc3cc(F)ccc3F)c2=O)cc1F` [Example 564, 5-(4-(4-(2,5-difluorobenzyl)-5-oxo-4,5-dihydro-1H-1,2,4-triazol-1-yl)-2-fluorophenoxy)-4-methylthiazole-2-carboxamide] was run?
Its IC50 is < 100 nM.

How did the IC50 turn out when `O=c1n(Cc2c(F)cccc2F)cnn1-c1ccc(C2=CCOCC2)cc1` [Example 536, 4-(2,6-difluorobenzyl)-2-(4-(3,6-dihydro-2H-pyran-4-yl)phenyl)-2,4-dihydro-3H-1,2,4-triazol-3-one] was run?
Its IC50 is 1000 to 10000 nM.

With `Cc1nn(-c2ccc(S(=O)(=O)N3CCN(C4CCOCC4)CC3)cc2)c(=O)n1Cc1ccccc1` [Example 621, 4-benzyl-5-methyl-2-(4-((4-(tetrahydro-2H-pyran-4-yl)piperazin-1-yl)sulfonyl)phenyl)-2,4-dihydro-3H-1,2,4-triazol-3-one] as the molecule, how does the IC50 read?
Its IC50 is > 10000 nM.

Same assay, conditions: Homo sapiens, HT-29, HT-29 necroptosis cell viability, IC50 class symbols; read-out: Activity

For `N#CC1(F)CN(c2cc(Oc3ccc(-n4ncn(Cc5c(F)cccc5F)c4=O)cc3)ccn2)C1` [Example 252, 1-(4-(4-(4-(2,6-difluorobenzyl)-5-oxo-4,5-dihydro-1H-1,2,4-triazol-1-yl)phenoxy)pyridin-2-yl)-3-fluoroazetidine-3-carbonitrile], which IC50 is on record?
Its IC50 is 100 to 1000 nM.

Which IC50 does the source give for `O=c1n(Cc2c(F)cccc2F)cnn1-c1ccc(Oc2ccnc(NC3CCC3)c2)cc1` [Example 344, 2-(4-((2-(cyclobutylamino)pyridin-4-yl)oxy)phenyl)-4-(2,6-difluorobenzyl)-2,4-dihydro-3H-1,2,4-triazol-3-one] here?
Its IC50 is 100 to 1000 nM.

For `O=c1n(Cc2c(F)cccc2F)cnn1-c1ccc(Oc2ccncc2)cc1` [Example 438, 4-(2,6-difluorobenzyl)-2-(4-(pyridin-4-yloxy)phenyl)-2,4-dihydro-3H-1,2,4-triazol-3-one], which IC50 is on record?
Its IC50 is 100 to 1000 nM.

How did the IC50 turn out when `COC1(C#N)CN(c2cc(Oc3ccc(-n4ncn(Cc5c(F)cccc5F)c4=O)cc3)c(Cl)cn2)C1` [Example 319, 1-(5-chloro-4-(4-(4-(2,6-difluorobenzyl)-5-oxo-4,5-dihydro-1H-1,2,4-triazol-1-yl)phenoxy)pyridin-2-yl)-3-methoxyazetidine-3-carbonitrile] was run?
Its IC50 is < 100 nM.

Which IC50 does the source give for `N#CC12CC(Nc3cc(Oc4ccc(-n5ncn(Cc6c(F)cccc6F)c5=O)cc4F)c(Cl)cn3)(C1)C2` [Example 270, 3-((5-chloro-4-(4-(4-(2,6-difluorobenzyl)-5-oxo-4,5-dihydro-1H-1,2,4-triazol-1-yl)-2-fluorophenoxy)pyridin-2-yl)amino)bicyclo[1.1.1]pentane-1-carbonitrile] here?
Its IC50 is < 100 nM.

With `CCNC1CN(c2cc(Oc3ccc(-n4ncn(Cc5c(F)cccc5F)c4=O)cc3)ccn2)C1` [Example 318, 4-(2,6-difluorobenzyl)-2-(4-((2-(3-(ethylamino)azetidin-1-yl)pyridin-4-yl)oxy)phenyl)-2,4-dihydro-3H-1,2,4-triazol-3-one] as the molecule, how does the IC50 read?
Its IC50 is 100 to 1000 nM.

`CC1CCN(c2cc(Oc3ccc(-n4ncn(Cc5c(F)cccc5F)c4=O)cc3)ccn2)C1` (stereo not shown) [Example 337, 4-(2,6-difluorobenzyl)-2-(4-((2-(3-methylpyrrolidin-1-yl)pyridin-4-yl)oxy)phenyl)-2,4-dihydro-3H-1,2,4-triazol-3-one] was tested. Which IC50 did it give?
The IC50 was < 100 nM.

Which IC50 does the source give for `N#CC12CC(Nc3cc(Oc4ccc(-n5ncn(Cc6c(F)cccc6F)c5=O)cc4Cl)c(F)cn3)(C1)C2` [Example 392, 3-((4-(2-chloro-4-(4-(2,6-difluorobenzyl)-5-oxo-4,5-dihydro-1H-1,2,4-triazol-1-yl)phenoxy)-5-fluoropyridin-2-yl)amino)bicyclo[1.1.1]pentane-1-carbonitrile] here?
The IC50 was < 100 nM.

Which IC50 does the source give for `CC1CN(c2cc(Oc3ccc(-n4ncn(Cc5c(F)cccc5F)c4=O)cc3)ccn2)CC1C#N` (stereo not shown) [Example 281, 1-(4-(4-(4-(2,6-difluorobenzyl)-5-oxo-4,5-dihydro-1H-1,2,4-triazol-1-yl)phenoxy)pyridin-2-yl)-4-methylpyrrolidine-3-carbonitrile] here?
Its IC50 is < 100 nM.

Same assay, conditions: Homo sapiens; HT-29 cells stimulated with TNF-α (10 ng/ml), SMAC mimetic (6 μM) and zVAD-FMK (10 μM); 20 hours; CellTiter-Glo ATP luminescence; geometric mean IC50 from 10 points; read-out: Activity

With `O=c1n(-c2ccc(Oc3cc(Cl)ncc3F)c(F)c2)nc2n1C(c1ccccc1)CC2` (stereo not shown) [Example 12, 2-(4-((2-chloro-5-fluoropyridin-4-yl)oxy)-3-fluorophenyl)-5-phenyl-2,5,6,7-tetrahydro-3H-pyrrolo[2,1-c][1,2,4]triazol-3-one] as the molecule, how does the IC50 read?
Its IC50 is < 100 nM.

How did the IC50 turn out when `CCc1c(Oc2ccc(-n3nc4n(c3=O)[C@H](c3ccccc3)CC4)cc2F)nsc1C(N)=O` (single isomer, unassigned) [Example 686] was run?
Its IC50 is < 100 nM.
